Experimental data: BindingDB's records for doi:10.1021/jm100555f (Harvard Medical School, 2010)

Experiment: Inhibition of Bcr-Abl in mouse BA/F3 cells

Structure (SMILES)	EC50 [nM]
FC(F)(F)Oc1ccc(Nc2cc(NCCN3CCOCC3)ncn2)cc1 [N4-(2-morpholinoethyl)-N6-(4-(trifluoromethoxy)phenyl)pyrimidine-4,6-diamine]	720
Cn1ccc2c(Nc3ccc(OC(F)(F)F)cc3)ncnc21 [7-methyl-N-(4-(trifluoromethoxy)phenyl)-7H-pyrrolo[2,3-d]pyrimidin-4-amine]	6890
OCCn1ncc2c(Nc3ccc(OC(F)(F)F)cc3)ncnc21 [2-(4-(4-(Trifluoromethoxy)phenylamino)-1H-pyrazolo-[3,4-d]pyrimidin-1-yl)ethanol]	250
Cc1nc(C)c(Cn2ncc3c(Nc4ccc(OC(F)(F)F)cc4)ncnc32)s1 [1-((2,4-dimethylthiazol-5-yl)methyl)-N-(4-(trifluoromethoxy)phenyl)-1H-pyrazolo[3,4-d]pyrimidin-4-amine]	6920
NS(=O)(=O)c1cccc(-c2cc(Nc3ccc(OC(F)(F)F)cc3)ncn2)c1 [3-(6-(4-(trifluoromethoxy)phenylamino)pyrimidin-4-yl)benzenesulfonamide]	580
FC(F)(F)Oc1ccc(Nc2ncnc3nn(Cc4ccccc4)cc23)cc1 [2-benzyl-N-(4-(trifluoromethoxy)phenyl)-2H-pyrazolo[3,4-d]pyrimidin-4-amine]	> 10000
CCn1ncc2c(Nc3ccc(OC(F)(F)F)cc3)ncnc21 [1-ethyl-N-(4-(trifluoromethoxy)phenyl)-1H-pyrazolo[3,4-d]pyrimidin-4-amine]	300
FC(F)(F)Oc1ccc(Nc2cc(-c3ccc4[nH]ccc4c3)ncn2)cc1 [6-(1H-indol-5-yl)-N-(4-(trifluoromethoxy)phenyl)pyrimidin-4-amine]	290
FC(F)(F)Oc1ccc(Nc2cc(-c3ccncc3)ncn2)cc1 [6-(pyridin-4-yl)-N-(4-(trifluoromethoxy)phenyl)pyrimidin-4-amine]	470
FC(F)(F)Oc1ccc(Nc2cc(NCCCN3CCOCC3)ncn2)cc1 [N4-(3-morpholinopropyl)-N6-(4-(trifluoromethoxy)phenyl)pyrimidine-4,6-diamine]	4470
CC(C)Cn1cc(-c2cc(Nc3ccc(OC(F)(F)F)cc3)ncn2)cn1 [6-(1-isobutyl-1H-pyrazol-4-yl)-N-(4-(trifluoromethoxy)phenyl)pyrimidin-4-amine]	360
FC(F)(F)Oc1ccc(Nc2cc(-n3ccnc3)ncn2)cc1 [6-(1H-imidazol-1-yl)-N-(4-(trifluoromethoxy)phenyl)pyrimidin-4-amine]	1660
CS(=O)(=O)c1cccc(-c2cc(Nc3ccc(OC(F)(F)F)cc3)ncn2)c1 [6-(3-(methylsulfonyl)phenyl)-N-(4-(trifluoromethoxy)phenyl)pyrimidin-4-amine]	390
NC(=O)c1cccc(Nc2cc(Nc3ccc(OC(F)(F)F)cc3)ncn2)c1 [3-(6-(4-(trifluoromethoxy)phenylamino)pyrimidin-4-ylamino)benzamide]	2920
NC(=O)c1ccc(Cn2ncc3c(Nc4ccc(OC(F)(F)F)cc4)ncnc32)cc1 [4-((4-(4-(trifluoromethoxy)phenylamino)-1H-pyrazolo[3,4-d]pyrimidin-1-yl)methyl)benzamide]	6890

Results, then the compound that gave them:

EC50 [nM]	Structure (SMILES)
> 10000	COc1ccc(Nc2cc(NCCN3CCOCC3)ncn2)cc1 [N4-(4-methoxyphenyl)-N6-(2-morpholinoethyl)pyrimidine-4,6-diamine]
420	O=C(NCCN1CCOCC1)c1cccc(-c2cc(Nc3ccc(OC(F)(F)F)cc3)ncn2)c1 [N-(2-morpholinoethyl)-3-(6-(4-(trifluoromethoxy)phenylamino)pyrimidin-4-yl)benzamide]
> 10000	FC(F)(F)Oc1ccc(-c2cc(NCCN3CCOCC3)ncn2)cc1 [N-(2-morpholinoethyl)-6-(4-(trifluoromethoxy)phenyl)pyrimidin-4-amine]
> 10000	CN(c1ccc(OC(F)(F)F)cc1)c1cc(-c2ccncc2)ncn1 [N-methyl-6-(pyridin-4-yl)-N-(4-(trifluoromethoxy)phenyl)pyrimidin-4-amine]
40	CS(=O)(=O)Nc1ccc(-c2cc(Nc3ccc(OC(F)(F)F)cc3)ncn2)cc1 [N-(4-(6-(4-(trifluoromethoxy)phenylamino)pyrimidin-4-yl)phenyl)methanesulfonamide]
150	Cc1nn(C)c(C)c1-c1cc(Nc2ccc(OC(F)(F)F)cc2)ncn1 [N-(4-(trifluoromethoxy)phenyl)-6-(1,3,5-trimethyl-1H-pyrazol-4-yl)pyrimidin-4-amine]
> 10000	COc1ccc(Nc2cc(-c3ccncc3)ncn2)cc1 [N-(4-methoxyphenyl)-6-(pyridin-4-yl)pyrimidin-4-amine]
> 10000	CN(c1ccc(OC(F)(F)F)cc1)c1cc(NCCN2CCOCC2)ncn1 [N4-methyl-N6-(2-morpholinoethyl)-N4-(4-(trifluoromethoxy)phenyl)pyrimidine-4,6-diamine]
